This experiment deals with Aβ40 (Homo sapiens, UniProt P05067). Briefly: kinetic ThT assay for Aβ aggregation. It is filed as biochemical. As to conditions: for inhibition at 5 µM: 80 h, read-out: % inhib Aβ 40 (5 μm); for inhibition at 20 µM: read-out: % inhib. A β 40 (20 μM); for inhibition at 10 µM: compound 10 μM, read-out: % inhib Aβ 40 10 μM; for IC50: ThT fluorescence, 20 μM Aβ, 37° C., up to 80 hr, parenthesis = compound 1027 in same experiment, read-out: IC50 A β 1-40. On the procedure:
Aβ40 (1.0 mg) was pre-treated in a 1.5 mL microfuge tube with HFIP (1 mL) and sonicated for 20 min to disassemble any pre-formed Aβ aggregates. The HFIP was removed with a stream of argon and the Aβ dissolved in Tris base (5.8 mL, 20 mM, pH˜10). The pH was adjusted to 7.4 with concentrated HCl (˜10 μL) and the solution filtered using a syringe filter (0.2 μm) before being used.
The kinetic ThT assay for AP aggregation is similar to that of Chalifour et al (Chalifour et al, 2003, J. Biol. Chem. 278:34874-81). Briefly, pre-treated Aβ40 or Aβ42 (40 μM in 20 mM Tris, pH 7.4) was diluted with an equal volume of 8 μM Thioflavin T (ThT) in Tris (20 mM, pH 7.4, 300 mM NaCl). Aliquots of Aβ/ThT (200 μL) were added to wells of a black polystyrene 96-well plate, followed by 2 μL of a compound in DMSO (variable concentration), or DMSO alone (controls). Incubations were performed in triplicate and were taken to contain 20 μM Aβ, various concentration of compound in 20 mM Tris, pH 7.4, 150 mM NaCl, 1% DMSO. Plates were covered with clear polystyrene lids and incubated at 37° C. in a Tecan Genios microplate reader.
Fluorescence readings (λex=450 nm, λem=480 nm) were taken every 15 min., after first shaking at high intensity for 15 s and allowing to settle for 10 s before each reading. Active compounds attenuated the increase in fluorescence over time that occurred in controls. In FIGS. 1-7, the time this procedure was performed extended to 80 hours (rightmost part of X-axis), at which point fluorescence increase generally reached an asymptote. Applying a definition of DMSO control at 80 hr as 100% aggregation (0% inhibition) and DMSO control at 0 hr as 0% aggregation (100% inhibition), a % inhibition score where higher is better can be calculated for a given concentration of compound. By repeating this procedure over several concentrations, a […] (IC50) can be measured, as is given in the table below for some compounds.
Data is summarized in the table below; numbers given in parenthesis are the values in that particular experiment for compound ID 1027, given as the first entry in this table for comparison.

Setting [1] is: compound 5 μm, DMSO control at 80 hr = 0% inhibition, parenthesis = compound 1027.
The mark [2] stands for this setting: compound 20 μM, DMSO control at 80 hr = 0% inhibition, parenthesis = compound 1027.
The mark [3] stands for this setting: DMSO control at 80 hr = 0% inhibition, parenthesis = compound 1027.

Each structure is given as a SMILES string. Several values for one entry are separate records, joined by “and”; a condition that tells them apart may be missing. Identical values can stand only once.

Sequence of Aβ40 (P05067 672-711 limits assumed, species assumed): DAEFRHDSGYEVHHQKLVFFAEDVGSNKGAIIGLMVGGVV

In the case of `C#CCN(C)c1cc(-c2cccc(C(O)C(F)(F)F)c2)cc2nonc12` (stereo not shown) [TRV-1404], under setting [1], the inhibition at 5 µM turned out to be 39%. In addition, the inhibition at 20 µM under setting [2] stood at 69%.
Consider `CC(O)c1cccc(-c2cc(N(C)Cc3ccccc3)c3nonc3c2)c1` (stereo not shown) [TRV-1358], for which, under setting [3], the inhibition at 10 µM was 72.7%.
Turning to `OC(c1ccc(-c2cc(N3CCCC3)c3nonc3c2)cc1)C(F)(F)F` (stereo not shown) [TRV-1365], the IC50 came out at 920 nM.
Regarding `CC(=O)c1cc(N(C)Cc2ccc(F)cc2)c2nonc2c1` [TRV-1418], the inhibition at 5 µM under setting [1] amounted to 34%. The inhibition at 20 µM under setting [2] was determined as 55%.
With `COCCN(C)c1cc(-c2cccc(C(O)C(F)(F)F)c2)cc2nonc12` (stereo not shown) [TRV-1383], under setting [1], the inhibition at 5 µM was found to be 54.9%.
For `OC(c1cc(N2Cc3ccccc3C2)c2nonc2c1)C(F)(F)F` (stereo not shown) [TRV-1420], the inhibition at 5 µM under setting [1] came to 44%. The inhibition at 20 µM under setting [2] is 48%.
Turning to `CCN(CC)c1cc(-c2cccc(C(O)C(F)(F)F)c2)cc2nonc12` (stereo not shown) [TRV-1382], the inhibition at 5 µM under setting [1] turned out to be 60%.
Regarding `CC(C)OC1CN(c2cc(-c3cccc(C(O)C(F)(F)F)c3)cc3nonc23)C1` (stereo not shown) [TRV-1447], the inhibition at 5 µM under setting [1] worked out at 54%. Further, the inhibition at 10 µM under setting [3] is 70%.
In the same order, the values of `CN(Cc1ccc(F)cc1)c1cc(-c2cccc(C3(O)COC3)c2)cc2nonc12` [TRV-1446] are 29% and 50%.
For the compound `COc1ccc(CN(C)c2cc(-c3cccc(C(O)C(F)(F)F)c3)cc3nonc23)cc1` (stereo not shown) [TRV-1414], the inhibition at 5 µM under setting [1] worked out at 53%. For the same compound, the inhibition at 20 µM under setting [2] stood at 69%.
With `COC1CCN(c2cc(-c3cccc(C(O)C(F)(F)F)c3)cc3nonc23)C1` (stereo not shown) [TRV-1411], the inhibition at 5 µM under setting [1] stood at 56%. Besides, under setting [2], the inhibition at 20 µM worked out at 81%.
On to `OC1(c2cc(N3Cc4ccccc4C3)c3nonc3c2)COC1` [TRV-1419], for which the inhibition at 5 µM under setting [1] is 48%. Moreover, the inhibition at 20 µM under setting [2] worked out at 55%.
The matching figures for `CN(Cc1ccc(F)cc1)c1cc(C(O)C(F)(F)F)cc2nonc12` (stereo not shown) [TRV-1397]: 38% and 61%.
`OC(c1ccccc1-c1cc(N2CCCC2)c2nonc2c1)C(F)(F)F` (stereo not shown) [TRV-1366]: the half-inhibitory concentration (IC50) is 3030 nM.
On the same count and under the same terms, as for `CN(Cc1ccccc1)c1cc(-c2cccc(C(O)C(F)(F)F)c2)cc2nonc12` (stereo not shown) [TRV-1378], the figure is 2380 nM.
Take `CN(Cc1ccc(F)cc1)c1cc(/C=C/C(O)(C(F)(F)F)C(F)(F)F)cc2nonc12` [TRV-1400]: the inhibition at 5 µM under setting [1] came out at 48%. The inhibition at 20 µM under setting [2] amounted to 80%.
As to `CC(O)c1cccc(-c2cc(NCc3ccccc3)c3nonc3c2)c1` (stereo not shown) [TRV-1259], under setting [3], the inhibition at 10 µM amounted to 66.3%.
Still for that read-out and setting: for `CC(O)c1cccc(-c2cc(N3CCCC3)c3nonc3c2)c1` (stereo not shown) [TRV-1310] the value was 81.5%.
For the compound `CC(=O)c1cccc(-c2cc(N3CCCC3)c3nonc3c2)c1` [TRV-1362], the inhibition at 10 µM under setting [3] came to 41.4%.
Take `CN(Cc1ccc(F)cc1)c1cc(-c2cccc(C(O)C(F)(F)F)c2)cc2nonc12` (stereo not shown) [TRV-1390]: the inhibition at 5 µM under setting [1] worked out at 51%. Also, the inhibition at 20 µM under setting [2] was 75%.
With `OC(c1cc(N2CCCC2)c2nonc2c1)C(F)(F)F` (stereo not shown) [TRV-1368], under setting [3], the inhibition at 10 µM was 61.4%.
On to `O=C(c1ccccc1)N1CCN(c2ccc([N+](=O)[O-])c(Nc3ccccc3)c2)CC1` [compound 1027, reference compound], for which the 50% inhibitory concentration (IC50) was 10.5 µM (3×) and 14.7 µM and 22.1 µM (3×). In addition, under setting [1], the inhibition at 5 µM turned out to be 33%; the “% inhib Aβ 40 (5 μm)” value was 38% and 33% (3×). Under setting [2], the “% inhib. A β 40 (20 μM)” value was 52% and 53% and 51%; the inhibition at 20 µM turned out to be 69%. Further, under “compound 3 μm, DMSO control at 80 hr = 0% inhibition, parenthesis = compound 1027”, the “% inhib Aβ 40 (3 μm)” value amounted to 26%.
With `O=C(NC1CC1)c1cccc(-c2cc(N3CCC3)c3nonc3c2)c1` [TRV-1441], under setting [1], the inhibition at 5 µM is 47%. Besides, the inhibition at 10 µM under setting [3] is 64%.
With `OC(c1ccc(-c2cc(N3CCCC3)c3nonc3c2)s1)C(F)(F)F` (stereo not shown) [TRV-1364], the half-maximal inhibitory concentration (IC50) is 1000 nM.
With `CCOC1CN(c2cc(-c3cccc(C(O)C(F)(F)F)c3)cc3nonc23)C1` (stereo not shown) [TRV-1437], the inhibition at 5 µM under setting [1] worked out at 44%. For the same compound, the inhibition at 10 µM under setting [3] is 50%.
Regarding `CN(Cc1ccc(F)cc1)c1cc(/C=C/CO)cc2nonc12` [TRV-1409], the inhibition at 5 µM under setting [1] stood at 50%. The inhibition at 20 µM under setting [2] came out at 69%.
The matching figures for `CN(Cc1ccccc1)c1cc(C(O)C(F)(F)F)cc2nonc12` (stereo not shown) [TRV-1392]: 36% and 69%.
In the case of `OC(c1cccc(-c2cc(N3CCC3)c3nonc3c2)c1)C(F)(F)F` (stereo not shown) [TRV-1432], the inhibition at 10 µM under setting [3] was determined as 51%.
With `COc1cc(CN(C)c2cc(-c3cccc(C(O)C(F)(F)F)c3)cc3nonc23)cc(OC)c1` (stereo not shown) [TRV-1415], under setting [1], the inhibition at 5 µM came to 52%. Moreover, under setting [2], the inhibition at 20 µM was determined as 53%.
In the case of `CN(C)CCCN(C)c1cc(-c2cccc(C(O)C(F)(F)F)c2)cc2nonc12` (stereo not shown) [compound 1463], the inhibition at 5 µM under setting [1] was 43.8%. The inhibition at 10 µM under setting [3] amounted to 62%.
Consider `CN(Cc1ccc(F)cc1)c1cc(C(=O)C(F)(F)F)cc2nonc12` [TRV-1417], for which the inhibition at 5 µM under setting [1] was 52%. For the same compound, under setting [2], the inhibition at 20 µM turned out to be 75%.
As for `OC(c1cccc(-c2cc(N3CCSCC3)c3nonc3c2)c1)C(F)(F)F` (stereo not shown) [TRV-1385], under setting [1], the inhibition at 5 µM turned out to be 65.6%.
As to `CCN(C)c1cc(-c2cccc(C(O)C(F)(F)F)c2)cc2nonc12` (stereo not shown) [TRV-1384], the inhibition at 5 µM under setting [1] was 72.4%.
Turning to `OC(c1cccc(-c2cc(N3CCOCC3)c3nonc3c2)c1)C(F)(F)F` (stereo not shown) [TRV-1360], the inhibition at 10 µM under setting [3] stood at 58.9%.
Consider `CN1CCN(c2cc(-c3cccc(C(O)C(F)(F)F)c3)cc3nonc23)CC1` (stereo not shown) [TRV-1376], for which the half-maximal inhibitory concentration (IC50) was 51700 nM.
As for `OC(c1cccc(-c2cc(N3CCCCC3)c3nonc3c2)c1)C(F)(F)F` (stereo not shown) [TRV-1381], the inhibition at 5 µM under setting [1] was 70.4%.
Take `CN(c1cc(-c2cccc(C(O)C(F)(F)F)c2)cc2nonc12)C1CC1` (stereo not shown) [TRV-1405]: under setting [1], the inhibition at 5 µM was found to be 46%. The inhibition at 20 µM under setting [2] amounted to 76%.
With `CC(C)N(C)c1cc(-c2cccc(C(O)C(F)(F)F)c2)cc2nonc12` (stereo not shown) [TRV-1377], the IC50 is 1860 nM.
On to `OC1CN(c2cc(-c3cccc(C(O)C(F)(F)F)c3)cc3nonc23)C1` (stereo not shown) [TRV-1406], for which, under setting [1], the inhibition at 5 µM is 53%. In addition, the inhibition at 20 µM under setting [2] turned out to be 83%.
In the same order, the values of `OC(c1cccc(-c2cc(N3Cc4ccccc4C3)c3nonc3c2)c1)C(F)(F)F` (stereo not shown) [TRV-1401] are 39% and 58%.
In the case of `O=C(c1cccc(-c2cc(N3CCC3)c3nonc3c2)c1)N1CCOCC1` [TRV-1442], the inhibition at 5 µM under setting [1] was 29%. The inhibition at 10 µM under setting [3] worked out at 43%.
`CN(Cc1ccccn1)c1cc(-c2cccc(C(O)C(F)(F)F)c2)cc2nonc12` (stereo not shown) [TRV-1412]: the inhibition at 5 µM under setting [1] was found to be 51%. Moreover, the inhibition at 20 µM under setting [2] came out at 64%.
`CN(Cc1cccnc1)c1cc(-c2cccc(C(O)C(F)(F)F)c2)cc2nonc12` (stereo not shown) [TRV-1413]: the inhibition at 5 µM under setting [1] turned out to be 53%. Moreover, under setting [2], the inhibition at 20 µM worked out at 61.3%.
With `CC(O)/C=C/c1cc(N(C)Cc2ccc(F)cc2)c2nonc2c1` (stereo not shown) [TRV-1427], the inhibition at 10 µM under setting [3] worked out at 41%.
Consider `CC1CCCN1c1cc(-c2cccc(C(O)C(F)(F)F)c2)cc2nonc12` (mixture of isomers) [TRV-1379], for which the IC50 worked out at 1650 nM.
Consider `O=C(c1cccc(-c2cc(N3CCC3)c3nonc3c2)c1)N1CCNCC1` [TRV-1440], for which the inhibition at 5 µM under setting [1] stood at 52%. The inhibition at 10 µM under setting [3] came out at 60%.

One may read the IC50 as the midpoint of a concentration-inhibition curve.

The values are drawn from patent US9328078B2, “Benzofurazan anti-amyloid compounds and methods” (Treventis Corporation, priority 2012, dated 2016).
